Experimental data published in patent US11339171B2, “MDM2 inhibitors” (Gan & Lee Pharmaceuticals, priority 2017, dated 2022).
pIC50: −log10 of the molar value.

What was measured:
MDM2 = biological target: T1, MDM2 (Homo sapiens, UniProt Q00987); test: Inhibition test of MDM2-P53 (GST-MDM2, Biotin-P53, Anti-GST-Tb, SA-XL665); type: binding; details: for inhibitory effect on MDM2 compared with positive control compound HDM201: labels are Example numbers, the compounds with S-configuration are meant
T1 construct: made in house
In short: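 HTRF-type assay using 4 nM GST-MDM2 (final), Biotin-P53, SA-XL665 and anti-GST-Tb in PBS with 0.1% BSA, 5 mM DTT and 1 mM AEBSF. Compounds in 5-fold serial dilutions over twelve points; incubation 90 min at 25° C with shaking before plate-reader read-out.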

[1] = system: human osteosarcoma cell line SJSA-1; test: Inhibition of proliferation of human osteosarcoma cell line SJSA-1 (DAPI staining, In Cell Analyzer); details: for inhibitory effect on human osteosarcoma cell line SJSA-1 compared with positive control compound HDM201: labels are Example numbers, the compounds with S-configuration are meant; for IC50: Homo sapiens, SJSA-1, 72 h, read-out: IC50 (nM), inhibitory activity on proliferation of human osteosarcoma cell line SJSA-1, SJSA-1, incubated 72 h

T1 sequence (Q00987 whole entry): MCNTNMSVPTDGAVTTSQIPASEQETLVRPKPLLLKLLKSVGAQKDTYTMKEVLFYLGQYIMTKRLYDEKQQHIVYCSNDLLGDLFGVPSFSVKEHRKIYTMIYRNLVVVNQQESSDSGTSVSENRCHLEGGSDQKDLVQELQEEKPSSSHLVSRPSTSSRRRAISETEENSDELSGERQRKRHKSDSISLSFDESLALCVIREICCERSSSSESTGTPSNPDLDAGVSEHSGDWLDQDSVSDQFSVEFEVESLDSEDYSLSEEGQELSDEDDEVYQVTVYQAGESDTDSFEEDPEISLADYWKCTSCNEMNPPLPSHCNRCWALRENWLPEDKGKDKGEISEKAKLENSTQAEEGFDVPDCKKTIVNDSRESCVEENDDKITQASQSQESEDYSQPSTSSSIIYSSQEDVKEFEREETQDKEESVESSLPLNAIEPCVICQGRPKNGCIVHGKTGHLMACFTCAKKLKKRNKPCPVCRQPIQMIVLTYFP

| SMILES | inhibitory effect on MDM2 compared with positive control compound HDM201 (MDM2) | inhibitory effect on human osteosarcoma cell line SJSA-1 compared with positive control compound HDM201 [1] | pIC50 (MDM2) | IC50 [1] [nM] |
| --- | --- | --- | --- | --- |
| CCOc1cc(OC)c(-c2nc3c(n2C(C)C)C2(C(=O)Nc4cc(Cl)ccc42)N(c2cc(F)cc(Cl)c2)C3=O)cn1 (centres unmarked) [Example 139, 6-chloro-5′-(3-chloro-5-fluorophenyl)-2′-(6-ethoxy-4-methoxypyridin-3-yl)-3′-isopropyl-3′H-spiro[dihydroindole-3,4′-pyrrolo[3,4-d]imidazole]-2,6′(5′H)-dione] | better | better |  |  |
| COc1cc(C2CC2)ncc1-c1nc2c(n1C(C)C)C1(C(=O)Nc3cc(Cl)ccc31)N(c1cc(Cl)cnc1C)C2=O (centres unmarked) [Example 143, 6-chloro-5′-(5-chloro-2-methylpyridin-3-yl)-2′-(6-cyclopropyl-4-methoxypyridin-3-yl)-3′-isopropyl-3′H-spiro[dihydroindole-3,4′-pyrrolo[3,4-d]imidazole]-2,6′(5′H)-dione] | better | better |  |  |
| COc1cc(OCC(F)F)ncc1-c1nc2c(n1C(C)C)C1(C(=O)Nc3cc(Cl)ccc31)N(c1cc(Cl)ccc1C)C2=O (centres unmarked) [Example 153, 6-chloro-5′-(5-chloro-2-methylphenyl)-2′-(6-(2,2-difluoroethoxy)-4-methoxypyridin-3-yl)-3′-isopropyl-3′H-spiro[dihydroindole-3,4′-pyrrolo[3,4-d]imidazole]-2,6′(5′H)-dione] | better | better |  |  |
| COc1cc(C)ncc1-c1nc2c(n1C(C)C)C1(C(=O)Nc3cc(Cl)ccc31)N(c1cc(Cl)ccc1C)C2=O (centres unmarked) [Example 154, 6-chloro-5′-(5-chloro-2-methylphenyl)-3′-isopropyl-2′-(4-methoxy-6-methylpyridin-3-yl)-3′H-spiro[dihydroindole-3,4′-pyrrolo[3,4-d]imidazole]-2,6′(5′H)-dione] | better | better |  |  |
| COc1cc(N(C)C)ncc1-c1nc2c(n1C(C)C)C1(C(=O)Nc3cc(Cl)ccc31)N(c1cc(Cl)cnc1C)C2=O (centres unmarked) [Example 155, 6-chloro-5′-(5-chloro-2-methylpyridin-3-yl)-2′-(6-(dimethylamino)-4-methoxypyridin-3-yl)-3′-isopropyl-3′H-spiro[dihydroindole-3,4′-pyrrolo[3,4-d]imidazole]-2,6′(5′H)-dione] | better | better |  |  |
| COc1cc(C(C)C)ncc1-c1nc2c(n1C(C)C)C1(C(=O)Nc3cc(Cl)ccc31)N(c1cc(Cl)ccc1C)C2=O (centres unmarked) [Example 164, 6-chloro-5′-(5-chloro-2-methylphenyl)-3′-isopropyl-2′-(6-isopropyl-4-methoxypyridin-3-yl)-3′H-spiro[dihydroindole-3,4′-pyrrolo[3,4-d]imidazole]-2,6′(5′H)-dione] | better | better |  |  |
| COc1cc(C(C)C)ncc1-c1nc2c(n1C(C)C)C1(C(=O)Nc3cc(Cl)ccc31)N(c1cc(Cl)cnc1C)C2=O (centres unmarked) [Example 166, 6-chloro-5′-(5-chloro-2-methylpyridin-3-yl)-3′-isopropyl-2′-(6-isopropyl-4-methoxypyridin-3-yl)-3′H-spiro[dihydroindole-3,4′-pyrrolo[3,4-d]imidazole]-2,6′(5′H)-dione] | better | better |  |  |
| COc1cc(C2CC2)ncc1-c1nc2c(n1C(C)C)C1(C(=O)Nc3cc(Cl)ccc31)N(c1cc(F)cc(Cl)c1)C2=O (centres unmarked) [Example 176, 6-chloro-5′-(3-chloro-5-fluorophenyl)-2′-(6-cyclopropyl-4-methoxypyridin-3-yl)-3′-isopropyl-3′H-spiro[dihydroindole-3,4′-pyrrolo[3,4-d]imidazole]-2,6′(5′H)-dione] | better | better |  |  |
| COc1nc(C#N)ncc1-c1nc2c(n1C(C)C)C1(C(=O)Nc3cc(Cl)ccc31)N(c1cc(Cl)ccc1C)C2=O (centres unmarked) [Example 179] |  |  | 8.37 | 52.7 |
| COc1ncc(-c2nc3c(n2C(C)C)[C@]2(C(=O)Nc4cc(Cl)ccc42)N(c2cccc(Cl)c2)C3=O)c(OC)n1 [Example R-1, (R)-6-chloro-5′-(3-chlorophenyl)-2′-(2,4-dimethoxypyrimidin-5-yl)-3′-isopropyl-3′H-spiro[dihydroindole-3,4′-pyrrolo[3,4-d]imidazole]-2,6′(5′H)-dione] |  |  | 6.21 | 16700 |
| COc1ncc(-c2nc3c(n2C(C)C)[C@]2(C(=O)Nc4cc(Cl)ccc42)N(c2cc(Cl)ccc2C)C3=O)c(OC)n1 [Example R-2, (R)-6-chloro-5′-(5-chloro-2-methylphenyl)-2′-(2,4-dimethoxypyrimidin-5-yl)-3′-isopropyl-3′H-spiro[dihydroindole-3,4′-pyrrolo[3,4-d]imidazole]-2,6′(5′H)-dione] |  |  | 6.93 | 2770 |
| COc1ncc(-c2nc3c(n2C(C)C)[C@]2(C(=O)Nc4cc(Cl)ccc42)N(c2ccc(F)c(Cl)c2)C3=O)c(OC)n1 [Example R-3, (R)-6-chloro-5′-(3-chloro-4-fluorophenyl)-2′-(2,4-dimethoxypyrimidin-5-yl)-3′-isopropyl-3′H-spiro[dihydroindole-3,4′-pyrrolo[3,4-d]imidazole]-2,6′(5′H)-dione] |  |  | 5.92 | 16300 |
| COc1cc(F)ccc1-c1nc2c(n1C(C)C)[C@]1(C(=O)Nc3cc(Cl)ccc31)N(c1cc(Cl)ccc1C)C2=O [Example R-4, (R)-6-chloro-5′-(5-chloro-2-methylphenyl)-2′-(4-fluoro-2-methoxyphenyl)-3′-isopropyl-3′H-spiro[dihydroindole-3,4′-pyrrolo[3,4-d]imidazole]-2,6′(5′H)-dione] |  |  | 6.88 | 2190 |
| COc1ccccc1-c1nc2c(n1C(C)C)[C@]1(C(=O)Nc3cc(Cl)ccc31)N(c1cc(Cl)ccc1C)C2=O [Example R-5, (R)-6-chloro-5′-(5-chloro-2-methylphenyl)-3′-isopropyl-2′-(2-methoxyphenyl)-3′H-spiro[dihydroindole-3,4′-pyrrolo[3,4-d]imidazole]-2,6′(5′H)-dione] |  |  | 6.96 | 1600 |
| COc1ccc(-c2nc3c(n2C(C)C)[C@]2(C(=O)Nc4cc(Cl)ccc42)N(c2cc(Cl)ccc2C)C3=O)c(OC)n1 [Example R-8, (R)-6-chloro-5′-(5-chloro-2-methylphenyl)-2′-(2,6-dimethoxypyridin-3-yl)-3′-isopropyl-3′H-spiro[dihydroindole-3,4′-pyrrolo[3,4-d]imidazole]-2,6′(5′H)-dione] |  |  | 6.48 | 2290 |
| COc1ccc(-c2nc3c(n2C(C)C)[C@]2(C(=O)Nc4cc(Cl)ccc42)N(c2cc(Cl)ccc2C)C3=O)c(OC)c1 [Example R-9, (R)-6-chloro-5′-(5-chloro-2-methylphenyl)-2′-(2,4-dimethoxyphenyl)-3′-isopropyl-3′H-spiro[dihydroindole-3,4′-pyrrolo[3,4-d]imidazole]-2,6′(5′H)-dione] |  |  | 6.48 | 2820 |
| COc1cnccc1-c1nc2c(n1C(C)C)[C@]1(C(=O)Nc3cc(Cl)ccc31)N(c1cc(Cl)ccc1C)C2=O [Example R-10, (R)-6-chloro-5′-(5-chloro-2-methylphenyl)-3′-isopropyl-2′-(3-methoxypyridin-4-yl)-3′H-spiro[dihydroindole-3,4′-pyrrolo[3,4-d]imidazole]-2,6′(5′H)-dione] |  |  | 6.93 | 2170 |
| COc1cc(OC)c(-c2nc3c(n2C(C)C)[C@]2(C(=O)Nc4cc(Cl)ccc42)N(c2cc(Cl)ccc2C)C3=O)cn1 [Example R-11, (R)-6-chloro-5′-(5-chloro-2-methylphenyl)-2′-(4,6-dimethoxypyridin-3-yl)-3′-isopropyl-3′H-spiro[dihydroindole-3,4′-pyrrolo[3,4-d]imidazole]-2,6′(5′H)-dione] |  |  | 6.59 | 1510 |
| COc1cc(C#N)ccc1-c1nc2c(n1C(C)C)[C@]1(C(=O)Nc3cc(Cl)ccc31)N(c1cc(Cl)ccc1C)C2=O [Example R-12, (R)-4-(6-chloro-5′-(5-chloro-2-methylphenyl)-3′-isopropyl-2,6′-dioxo-5′,6′-dihydro-3′H-spiro[dihydroindole-3,4′-pyrrolo[3,4-d]imidazole]-2′-yl)-3-methoxybenzonitrile] |  |  | 6.43 | 2440 |
| COc1ccc(C#N)cc1-c1nc2c(n1C(C)C)[C@]1(C(=O)Nc3cc(Cl)ccc31)N(c1cc(Cl)ccc1C)C2=O [Example R-13, (R)-3-(6-chloro-5′-(5-chloro-2-methylphenyl)-3′-isopropyl-2,6′-dioxo-5′,6′-dihydro-3′H-spiro[dihydroindole-3,4′-pyrrolo[3,4-d]imidazole]-2′-yl)-4-methoxybenzonitrile] |  |  | 6.92 | 1120 |
| CCc1ccc(Cl)cc1N1C(=O)c2nc(-c3cnc(OC)nc3OC)n(C(C)C)c2[C@]12C(=O)Nc1cc(Cl)ccc12 [Example R-15, (R)-6-chloro-5′-(5-chloro-2-ethylphenyl)-2′-(2,4-dimethoxypyrimidin-5-yl)-3′-isopropyl-3′H-spiro[dihydroindole-3,4′-pyrrolo[3,4-d]imidazole]-2,6′(5′H)-dione] |  |  | 6.97 | 840 |
| COc1ncc(-c2nc3c(n2C(C)C)[C@]2(C(=O)Nc4cc(Cl)ccc42)N(c2cc(Cl)cn(C)c2=O)C3=O)c(OC)n1 [Example R-16, (R)-6-chloro-5′-(5-chloro-1-methyl-2-oxo-1,2-dihydropyridin-3-yl)-2′-(2,4-dimethoxypyrimidin-5-yl)-3′-isopropyl-3′H-spiro[dihydroindole-3,4′-pyrrolo[3,4-d]imidazole]-2,6′(5′H)-dione] |  |  | 6.24 | 20100 |
